Measured values published in patent US6921821B2, “Antagonists of melanin concentrating hormone receptor” (Abbott Laboratories, priority 2002, dated 2005).
Structures can show the parent of a compound that is named as a salt.

Experiments:
MCH-R1 = MCH-R1 (Mus musculus, UniProt Q8JZL2); test: MCH-R1 antagonist activity, comparison of stereoisomers (assay not specified); conditions: qualitative comparison of isomers
murine MCHR = target: T1, murine MCHR (Mus musculus, UniProt Q8JZL2); test: Assay for release of intracellular calcium (FLIPR, Fluo-4), inhibition of MCH-induced Ca++ flux; assay type: cell-based; conditions: test compound at a dose of 10 μM, HEK293 cells expressing the murine MCHR, read-out: inhibition of MCH (MCH induced Ca++ flux / fluorescence)
T1 construct: expressed in transfected cells; host or cells: HEK293
T1 sequence (Q8JZL2 whole entry): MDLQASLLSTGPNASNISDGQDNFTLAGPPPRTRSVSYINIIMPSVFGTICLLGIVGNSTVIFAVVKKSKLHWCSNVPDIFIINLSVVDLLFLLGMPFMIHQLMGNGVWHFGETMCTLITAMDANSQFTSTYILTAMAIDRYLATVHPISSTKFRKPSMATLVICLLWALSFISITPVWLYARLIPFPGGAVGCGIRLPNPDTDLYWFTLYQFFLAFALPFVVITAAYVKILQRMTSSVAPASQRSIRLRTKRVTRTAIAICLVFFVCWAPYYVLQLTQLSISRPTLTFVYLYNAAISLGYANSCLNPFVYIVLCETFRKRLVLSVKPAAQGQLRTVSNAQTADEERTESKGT
Procedure, shortened: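 HEK293 cells expressing murine MCHR were loaded with Fluo-4AM (2.5 μM) and given compound (40 μM stock in 4% DMSO), with 3 min monitoring for agonism. They were then challenged with mouse MCH (12 nM as added) and FLIPR fluorescence followed 3 min more. % inhibition of MCH-induced Ca++ flux was calculated against baseline and no-compound signals.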

MCH-R1, sequence (Q8JZL2 whole entry): as above

| SMILES | MCH-R1 antagonist activity, relative between stereoisomers (MCH-R1) | inhibition at 10 µM (murine MCHR) [%] |
| --- | --- | --- |
| O=c1cc(NC2CC3CCC(C2)N3Cc2ccc3c(c2)OCO3)c2cc(Cl)ccc2o1 (stereo not drawn) [II-122, (exo)-4-(8-Benzo[1,3]dioxol-5-ylmethyl-8-aza-bicyclo[3.2.1]oct-3-ylamino)-6-chloro-chromen-2-one] | more active than the endo isomer II-123 | – |
| C[C@H](c1ccc2ccccc2c1)N1CCC(Nc2cc(=O)oc3ccc(Cl)cc23)CC1 [II-119, (R)-6-Chloro-4-[1-(1-naphthalen-2-yl-ethyl)-piperdin-4-ylamino]-chromen-2-one] | more active than II-120 | – |
| COc1ccc2oc(=O)cc(NC3CCN(Cc4ccc5c(c4)OCCO5)CC3)c2c1 [II-64, 4-[1-(2,3-Dihydro-benzo[1,4]dioxin-6-ylmethyl)-piperidin-4-ylamino]-6-methoxy-chromen-2-one trifluoroacetate] | – | ≥ 50 |
| CON(C)C(=O)c1c(NC2CCN(Cc3ccc4c(c3)OCO4)CC2)c2cc(Cl)ccc2n(C)c1=O [Compound V-52, 4-(1-Benzo[1,3]dioxol-5-ylmethyl-piperidin-4-ylamino)-6-chloro-1-methyl-2-oxo-1,2-dihydro-quinoline-3-carboxylic acid methoxy-methyl-amide] | – | ≥ 50 |
